Measured values published in patent publication US20240269086A1, “PERGULARIA TOMENTOSA SILVER NANOPARTICLES” (KING FAISAL UNIVERSITY, priority 2023, published 2024).

Legend:
Assay in all cases: Agar disk diffusion, inhibition zone diameter
Format in all cases: cell-based
[1] = system: S. enteritidis; conditions: 6.25 μg/ml (by grid column), Nil = No growth
Source text: (§1) The agar disk diffusion method was used to investigate the antibacterial activity of the PT-AgNPs against four bacterial strains.

[2] = system: S. aureus; conditions: 25 μg/ml, Nil = No growth
Source text: as §1

[3] = system: E. coli; conditions: 25 μg/ml, Nil = No growth
Source text: as §1

[4] = system: B. cereus; conditions: 25 μg/ml, Nil = No growth
Source text: as §1

Measured: IZD (mm)

O=C(N[C@H](CO)[C@H](O)c1ccc([N+](=O)[O-])cc1)C(Cl)Cl [Chloramphenicol]
Nil: all assays above
